These compounds were tested against T1, catechol-O-methyltransferase (COMT) (Homo sapiens, UniProt P21964) (assay: COMT inhibition assay (HTRF, production of SAH from SAM)). Settings: table does not say MB-COMT or S-COMT.
T1 construct: M51A variant) was expressed in HEK 293F cells
T1 sequence (P21964 52-271 limits assumed): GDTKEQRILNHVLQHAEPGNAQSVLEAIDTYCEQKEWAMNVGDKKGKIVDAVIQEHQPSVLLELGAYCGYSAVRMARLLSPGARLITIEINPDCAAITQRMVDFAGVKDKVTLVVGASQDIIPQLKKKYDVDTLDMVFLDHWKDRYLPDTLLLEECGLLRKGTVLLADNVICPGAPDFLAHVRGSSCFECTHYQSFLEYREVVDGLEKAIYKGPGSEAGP
Type: biochemical
Experimental: The ability of compounds to inhibit the activity of catechol-O-methyltransferase (COMT) was determined by a homogenous time-resolved fluorescent (HTRF) assay (Lina et al, 2012; kit from CisBio, Codolet, France). This assay measures the production of S-adenosyl homocysteine (SAH) from the methyl donor S-adenosyl methionine. Recombinant human membrane bound COMT (MB-COMT; M51A variant) was expressed in HEK 293F cells using 293Fectin (Life Technologies, Gent, Belgium) and membranes prepared. The membranes were re-suspended in buffer (20 mM Tris/HCl pH 7; 10 mM glycerol; 2 mM MgCl2; 10 mM NaCl), aliquoted and stored at −80° C. Recombinant human soluble COMT(S-COMT), Val158 variant and a hexa-His tag on the N-terminus, was purified using Ni-NTA chromatography, the His tag removed and stored in buffer as above.
For the human MB-COMT assay, membranes (62 ng/well) were incubated with SAM (20 μM final, CisBio) and dopamine (1.5 μM final; Sigma H8502, Diegem, Belgium) in the presence or absence of varying concentrations (typically 10 concentrations ranging from 10 ? M to 0.1 nM) of compound for 40 min at 37° C. in 384-well microtiter plates (10 ? l per well final volume). The reaction was terminated by the addition of acylation buffer and the amount of SAH produced determined according to manufacturer's instructions. Specific inhibition as that inhibited by a high concentration of tolcapone and all experiments were validated using a control curve to tolcapone.
The human S-COMT assay was performed as above except that 0.15 ng enzyme/well was incubated with SAM ([…]) and dopamine (100 μM final) for 15 min at 37° C. and SAH production determined.
HTRF readings were performed using a Perkin Elmer Envision and results expressed as concentration of SAH produced using a standard curve. Results were analyzed using non-linear regression to the 4-parameter logistic equation and pIC50 (−log 10 concentration of drug which inhibits enzyme activity/SAH production by 50%) determined.

| SMILES | Activity range (pIC50) |
| --- | --- |
| Cc1ccc(C)c(CN2CCn3cc(O)c(=O)cc3C2)c1 [Example 28, 2-(2,5-dimethylbenzyl)-7-hydroxy-1,2,3,4-tetrahydro-8H-pyrido[1,2-a]pyrazin-8-one] | +++ (three plus signs (+++) is associated with a pIC50 of above about 7) |
| O=c1cc2n(cc1O)CCN(Cc1cc3ccccc3n1S(=O)(=O)c1ccccc1)C2 [Example 29, 7-hydroxy-2-{[1-(phenylsulfonyl)-1H-indol-2-yl]methyl}-1,2,3,4-tetrahydro-8H-pyrido[1,2-a]pyrazin-8-one] | +++ (three plus signs (+++) is associated with a pIC50 of above about 7) |
| O=c1cc2n(cc1O)CCN(CCCc1ccccc1)C2 [Example 30, 7-hydroxy-2-(3-phenylpropyl)-1,2,3,4-tetrahydro-8H-pyrido[1,2-a]pyrazin-8-one] | ++ (two plus signs (++) is associated with a pIC50 of from about 6 to 7) |
| CC(CN1CCn2cc(O)c(=O)cc2C1)c1ccccc1 (stereo not drawn) [Example 31, 7-hydroxy-2-(2-phenylpropyl)-1,2,3,4-tetrahydro-8H-pyrido[1,2-a]pyrazin-8-one] | ++ (two plus signs (++) is associated with a pIC50 of from about 6 to 7) |
| O=c1cc2n(cc1O)CCN(Cc1cc(F)cc(F)c1)C2 [Example 32, 2-(3,5-difluorobenzyl)-7-hydroxy-1,2,3,4-tetrahydro-8H-pyrido[1,2-a]pyrazin-8-one] | ++ (two plus signs (++) is associated with a pIC50 of from about 6 to 7) |
| Cc1ccccc1CN1CCn2cc(O)c(=O)cc2C1 [Example 33, 7-hydroxy-2-(2-methylbenzyl)-1,2,3,4-tetrahydro-8H-pyrido[1,2-a]pyrazin-8-one] | +++ (three plus signs (+++) is associated with a pIC50 of above about 7) |
| O=c1cc2n(cc1O)CCN(Cc1cc(-c3ccccc3)[nH]n1)C2 [Example 34, 7-hydroxy-2-[(5-phenyl-1H-pyrazol-3-yl)methyl]-1,2,3,4-tetrahydro-8H-pyrido[1,2-a]pyrazin-8-one] | ++ (two plus signs (++) is associated with a pIC50 of from about 6 to 7) |
| O=c1cc2n(cc1O)CCN(Cc1cc(Cl)cc3c1OCCC3c1c[nH]cn1)C2 (stereo not drawn) [Example 35, 2-{[6-chloro-4-(1H-imidazol-4-yl)-3,4-dihydro-2H-chromen-8-yl]methyl}-7-hydroxy-1,2,3,4-tetrahydro-8H-pyrido[1,2-a]pyrazin-8-one] | ++ (two plus signs (++) is associated with a pIC50 of from about 6 to 7) |
| O=c1cc2n(cc1O)CCN(Cc1cccc(Oc3ccccc3)c1)C2 [Example 36, 7-hydroxy-2-(3-phenoxybenzyl)-1,2,3,4-tetrahydro-8H-pyrido[1,2-a]pyrazin-8-one] | +++ (three plus signs (+++) is associated with a pIC50 of above about 7) |
| Cc1cccc(CN2CCn3cc(O)c(=O)cc3C2)c1C [Example 37, 2-(2,3-dimethylbenzyl)-7-hydroxy-1,2,3,4-tetrahydro-8H-pyrido[1,2-a]pyrazin-8-one] | +++ (three plus signs (+++) is associated with a pIC50 of above about 7) |
| O=c1cc2n(cc1O)CCN(Cc1nc3ccccc3s1)C2 [Example 38, 2-(1,3-benzothiazol-2-ylmethyl)-7-hydroxy-1,2,3,4-tetrahydro-8H-pyrido[1,2-a]pyrazin-8-one] | ++ (two plus signs (++) is associated with a pIC50 of from about 6 to 7) |
| O=c1cc2n(cc1O)CCN(Cc1ccccc1F)C2 [Example 39, 2-(2-fluorobenzyl)-7-hydroxy-1,2,3,4-tetrahydro-8H-pyrido[1,2-a]pyrazin-8-one] | +++ (three plus signs (+++) is associated with a pIC50 of above about 7) |
| Cc1nn(C)c(Cl)c1CN1CCn2cc(O)c(=O)cc2C1 [Example 40, 2-[(5-chloro-1,3-dimethyl-1H-pyrazol-4-yl)methyl]-7-hydroxy-1,2,3,4-tetrahydro-8H-pyrido[1,2-a]pyrazin-8-one] | ++ (two plus signs (++) is associated with a pIC50 of from about 6 to 7) |
| O=c1cc2n(cc1O)CCN(Cc1coc3ccccc3c1=O)C2 [Example 41, 7-hydroxy-2-[(4-oxo-4H-chromen-3-yl)methyl]-1,2,3,4-tetrahydro-8H-pyrido[1,2-a]pyrazin-8-one] | ++ (two plus signs (++) is associated with a pIC50 of from about 6 to 7) |
| O=c1cc2n(cc1O)CCN(Cc1n[nH]c3ccccc13)C2 [Example 42, 7-hydroxy-2-(1H-indazol-3-ylmethyl)-1,2,3,4-tetrahydro-8H-pyrido[1,2-a]pyrazin-8-one] | ++ (two plus signs (++) is associated with a pIC50 of from about 6 to 7) |
| O=c1cc2n(cc1O)CCN(Cc1c[nH]nc1-c1cccs1)C2 [Example 43, 7-hydroxy-2-{[3-(thiophen-2-yl)-1H-pyrazol-4-yl]methyl}-1,2,3,4-tetrahydro-8H-pyrido[1,2-a]pyrazin-8-one] | ++ (two plus signs (++) is associated with a pIC50 of from about 6 to 7) |
| O=c1cc2n(cc1O)CCN(Cc1ccccc1C(F)(F)F)C2 [Example 44, 7-hydroxy-2-[2-(trifluoromethyl)benzyl]-1,2,3,4-tetrahydro-8H-pyrido[1,2-a]pyrazin-8-one] | +++ (three plus signs (+++) is associated with a pIC50 of above about 7) |
| O=c1cc2n(cc1O)CCN(Cc1c[nH]nc1-c1ccccc1)C2 [Example 45, 7-hydroxy-2-[(3-phenyl-1H-pyrazol-4-yl)methyl]-1,2,3,4-tetrahydro-8H-pyrido[1,2-a]pyrazin-8-one] | ++ (two plus signs (++) is associated with a pIC50 of from about 6 to 7) |
| COc1cccc(OC)c1CN1CCn2cc(O)c(=O)cc2C1 [Example 46, 2-(2,6-dimethoxybenzyl)-7-hydroxy-1,2,3,4-tetrahydro-8H-pyrido[1,2-a]pyrazin-8-one] | ++ (two plus signs (++) is associated with a pIC50 of from about 6 to 7) |
| O=c1cc2n(cc1O)CCN(Cc1ccc(Oc3ccccc3)cc1)C2 [Example 47, 7-hydroxy-2-(4-phenoxybenzyl)-1,2,3,4-tetrahydro-8H-pyrido[1,2-a]pyrazin-8-one] | +++ (three plus signs (+++) is associated with a pIC50 of above about 7) |
| O=c1cc2n(cc1O)CCN(Cc1ccc3c(c1)OCCO3)C2 [Example 48, 2-(2,3-dihydro-1,4-benzodioxin-6-ylmethyl)-7-hydroxy-1,2,3,4-tetrahydro-8H-pyrido[1,2-a]pyrazin-8-one] | ++ (two plus signs (++) is associated with a pIC50 of from about 6 to 7) |
| CC(Cc1ccc2c(c1)OCO2)CN1CCn2cc(O)c(=O)cc2C1 (stereo not drawn) [Example 49, 2-[3-(1,3-benzodioxol-5-yl)-2-methylpropyl]-7-hydroxy-1,2,3,4-tetrahydro-8H-pyrido[1,2-a]pyrazin-8-one] | ++ (two plus signs (++) is associated with a pIC50 of from about 6 to 7) |
| COc1ccc(CN2CCn3cc(O)c(=O)cc3C2)cc1 [Example 50, 7-hydroxy-2-(4-methoxybenzyl)-1,2,3,4-tetrahydro-8H-pyrido[1,2-a]pyrazin-8-one] | ++ (two plus signs (++) is associated with a pIC50 of from about 6 to 7) |
| COc1ccccc1CN1CCn2cc(O)c(=O)cc2C1 [Example 51, 7-hydroxy-2-(2-methoxybenzyl)-1,2,3,4-tetrahydro-8H-pyrido[1,2-a]pyrazin-8-one] | ++ (two plus signs (++) is associated with a pIC50 of from about 6 to 7) |
